Measured values published in US12617752B2, “Rapidly metabolized lipid compound” (Beijing Jitai Life Sciences Ltd, priority 2023, dated 2026).
One block for each compound: values may come before it.

Tests used:
[1] = Particle size and PDI of lipid nanoparticles by dynamic light scattering; format: physicochemical; details: lipid nanoparticles with luciferase mRNA; ionizable lipid/cholesterol/DSPC/DMG-PEG2000 50/38.5/10/1.5 mol%
Experimental: (§1) Lipid nanoparticles were prepared by (1) dissolving and mixing ionizable lipid compounds, cholesterol, phospholipids and polyethylene glycolated lipids in ethanol at (molar percentages) 50%, 38.5%, 10% and 1.5%, respectively; (2) dissolving the mRNA active ingredient in 25 mM sodium acetate solution (pH=4.5); (3) using an automated high-throughput microfluidic system to mix the organic phase containing the lipid mixture and the aqueous phase containing the mRNA component in the flow ratio range of 1:1 to 1:4 at a mixing speed of 10 mL/min to 18 mL/min; (4) the prepared lipid nanoparticles (N/P ratio=6) were diluted with phosphate buffer solution and the nanoparticle solutions were ultrafiltered to the original preparation volume using ultrafiltration tubes (purchased from Millipore) with a cut-off molecular weight of 30 kDa; and (5) the obtained nanoparticles were filtered through a sterile 0.2 μm filter membrane and then stored in a sealed glass vial at low temperature.
(§2) The particle size and particle size dispersity index (PDI) of the prepared lipid nanoparticles were measured using a Zetasizer Pro (purchased from Malvern Instruments Ltd) and a DynaPro NanoStar (purchased from Wyatt) dynamic light scattering instrument. The degree of RNA encapsulation by lipid nanoparticles was characterized by the Encapsulation Efficiency %, which reflects the degree of binding of lipid nanoparticles to RNA fragments. This parameter was measured by the method of Quant-it™ RiboGreen RNA Assay (purchased from Invitrogen). Lipid nanoparticle samples were diluted in TE buffer (10 mM Tris-HCl, 1 mM EDTA, pH=7.5). A portion of the sample solution was removed, to which 0.5% Triton (Triton X-100) was added, and then allowed to stand at 37° C. for 30 minutes. Immediately after the addition of RIBOGREEN® reaction solution, the fluorescence values were read on a Varioskan LUX multifunctional microplate reader (purchased from Thermofisher) at 485 nm for absorption and 528 nm for emission to give the encapsulation efficiency values.

[2] = Encapsulation efficiency of lipid nanoparticles (Quant-it RiboGreen RNA Assay); format: physicochemical; details: lipid nanoparticles with luciferase mRNA
Experimental: as §1, §2

[3] = tested on: C57BL/6 mice; test: In vivo delivery of luciferase mRNA lipid nanoparticles in mice (bioluminescence imaging); details: intravenous, single dose 0.5 mg/kg luciferase mRNA
Experimental: The delivery effect and safety of nanoparticles encapsulated with luciferase mRNA (Trilink, L-7202) in mice were evaluated. The test mice were SPF-grade C57BL/6 mice, female, 6-8 weeks old, weighing 18-22 g, and were purchased from SPF (Beijing) Biotechnology Co., Ltd. All animals were acclimatized for more than 7 days prior to the experiment, and had free access to food and water during the experiment. The conditions include alternating light and dark for 12/12 h, the indoor temperature of 20-26° C. and the humidity of 40-70%. The mice were randomly grouped. The lipid nanoparticles encapsulated with luciferase mRNA prepared above were injected into mice by intravenous administration at a single dose of 0.5 mg/kg mRNA, and the mice were subjected to in vivo bioluminescence assay using a Small Animal In Vivo Imaging System (IVIS LUMINA III, purchased from PerkinElmer) at 6 h after administration. The assay was performed as follows: D-luciferin solution was prepared in saline at a concentration of 15 mg/mL, and each mouse was given the substrate by intraperitoneal injection. At ten minutes after administration of the substrate, the mice were anesthetized in an anesthesia chamber with isoflurane at a concentration of 2.5%. The anesthetized mice were placed in IVIS for fluorescence imaging, and data acquisition and analysis were performed on the concentrated distribution area of fluorescence.
The in vivo delivery efficiency of lipid nanoparticle carriers was expressed as the mean values of fluorescence intensity and total photon count in different animals within the same subject group, as shown in Table 5-Table 11. Higher values of fluorescence intensity and total photon count indicate higher in vivo delivery efficiency of this mRNA fragment by lipid nanoparticles. The lipid nanoparticles containing the cationic lipids of the present disclosure have good in vivo delivery efficiency.

SMILES: CCCCCCCCCCC(=O)OCC(C)(C)CCCCCN(CCCCO)CCCCCCCC(=O)OC(CCCCCCCCC)CCCCCCCCC [17b]
- Particle size (nm) [1]: 109.87 nm
- Particle-size distribution (PDI) [1]: 0.030
- Encapsulation efficiency (%) [2]: 87.72%
- Total photon count in vivo at 6 hours after administration (Total Flux) [3]: 1.74E+11

SMILES: CCCCCCCCCCOC(=O)CCCCCCCN(CCO)CCCCCC(C)(C)COC(=O)CC(CCCCCCC)CCCCCCC [19b]
- Particle size (nm) [1]: 109.53 nm
- Particle-size distribution (PDI) [1]: 0.036
- Encapsulation efficiency (%) [2]: 83.01%
- Total photon count in vivo at 6 hours after administration (Total Flux) [3]: 6.13E+10

SMILES: CCCCCCCCCCOC(=O)CCCCCCCN(CCO)CCCCCC(C)(C)COC(=O)CCC(CCCCCC)CCCCCC [20b]
- Particle size (nm) [1]: 107.83 nm
- Particle-size distribution (PDI) [1]: 0.032
- Encapsulation efficiency (%) [2]: 87.69%
- Total photon count in vivo at 6 hours after administration (Total Flux) [3]: 4.82E+10

SMILES: CCCCCCCCCC(=O)OCC1(CCCCCN(CCO)CCCCCCCC(=O)OCCC(CCCCCC)CCCCCC)CC1 [23b]
- Particle size (nm) [1]: 115.70 nm
- Particle-size distribution (PDI) [1]: 0.031
- Encapsulation efficiency (%) [2]: 93.14%
- Total photon count in vivo at 6 hours after administration (Total Flux) [3]: 3.92E+10

SMILES: CCCCCCCCCC(=O)OCCCCCCCN(CCO)CCCCC(C)(C)COC(=O)OCC(CCCCCCC)CCCCCCC [25b]
- Particle size (nm) [1]: 94.39 nm
- Particle-size distribution (PDI) [1]: 0.15
- Encapsulation efficiency (%) [2]: 95.59%
- Total photon count in vivo at 6 hours after administration (Total Flux) [3]: 1.11E+11

SMILES: CCCCCCCCCOC(=O)CCCCC(C)(C)CCN(CCO)CCCCCCCC(=O)OCC(CCCCCCC)CCCCCCC [26a]
- Particle size (nm) [1]: 106.37 nm
- Particle-size distribution (PDI) [1]: 0.050
- Encapsulation efficiency (%) [2]: 91.18%
- Total photon count in vivo at 6 hours after administration (Total Flux) [3]: 1.11E+11

SMILES: CCCCCCCCCOC(=O)CCCCC(C)(C)CCN(CCO)CCCCCCCC(=O)OCCC(CCCCCC)CCCCCC [27a]
- Particle size (nm) [1]: 136.43 nm
- Particle-size distribution (PDI) [1]: 0.016
- Encapsulation efficiency (%) [2]: 93.52%
- Total photon count in vivo at 6 hours after administration (Total Flux) [3]: 4.31E+10

SMILES: CCCCCCCCCCOC(=O)OCCCCCCN(CCO)CCCCCC(C)(C)COC(=O)CC(CCCCCCC)CCCCCCC [27b]
- Particle size (nm) [1]: 91.10 nm
- Particle-size distribution (PDI) [1]: 0.18
- Encapsulation efficiency (%) [2]: 97.83%
- Total photon count in vivo at 6 hours after administration (Total Flux) [3]: 5.59E+10

SMILES: CCCCCCCCCCOC(=O)CCCC(C)(C)CCN(CCO)CCCCCCCC(=O)OCCC(CCCCCC)CCCCCC [28a]
- Particle size (nm) [1]: 110.30 nm
- Particle-size distribution (PDI) [1]: 0.018
- Encapsulation efficiency (%) [2]: 93.90%
- Total photon count in vivo at 6 hours after administration (Total Flux) [3]: 4.30E+10

SMILES: CCCCCCCCCCCOC(=O)OCCCCCN(CCO)CCCCCC(C)(C)COC(=O)CC(CCCCCCC)CCCCCCC [28b]
- Particle size (nm) [1]: 94.55 nm
- Particle-size distribution (PDI) [1]: 0.16
- Encapsulation efficiency (%) [2]: 96.19%
- Total photon count in vivo at 6 hours after administration (Total Flux) [3]: 4.18E+10

SMILES: CCCCCCCCCCOC(=O)CCC(C)(C)CCCCN(CCCCO)CCCCCCCC(=O)OC(CCCCCCCCC)CCCCCCCCC [29a]
- Particle size (nm) [1]: 88.59 nm
- Particle-size distribution (PDI) [1]: 0.012
- Encapsulation efficiency (%) [2]: 97.30%
- Total photon count in vivo at 6 hours after administration (Total Flux) [3]: 5.46E+10

SMILES: CCCCCCCCCOC(=O)OCCCCCCCN(CCO)CCCCCC(C)(C)COC(=O)CC(CCCCCCC)CCCCCCC [29b]
- Particle size (nm) [1]: 112.43 nm
- Particle-size distribution (PDI) [1]: 0.10
- Encapsulation efficiency (%) [2]: 96.28%
- Total photon count in vivo at 6 hours after administration (Total Flux) [3]: 3.52E+10

SMILES: CCCCCCCCCCOC(=O)OCCCCCCN(CCCCO)CCCCCC(C)(C)COC(=O)CC(CCCCCCC)CCCCCCC [30b]
- Particle size (nm) [1]: 115.83 nm
- Particle-size distribution (PDI) [1]: 0.08
- Encapsulation efficiency (%) [2]: 95.02%
- Total photon count in vivo at 6 hours after administration (Total Flux) [3]: 4.03E+10

SMILES: CCCCCCCCCCOC(=O)OCCCCCN(CCO)CCCCCCC(C)(C)C(=O)OC(CCCCCCCC)CCCCCCCC [31a]
- Particle size (nm) [1]: 115.56 nm
- Particle-size distribution (PDI) [1]: 0.11
- Encapsulation efficiency (%) [2]: 86.08%
- Total photon count in vivo at 6 hours after administration (Total Flux) [3]: 7.04E+10

Continued, in another order:

- Particle size (nm) [1]: 120.27 nm
- Particle-size distribution (PDI) [1]: 0.015
- Encapsulation efficiency (%) [2]: 69.69%
SMILES: CCCCCCCCCC(=O)OCC1(CCCCCN(CCCCO)CCCCCCCC(=O)OC(CCCCCCCC)CCCCCCCC)CC1 [15b]
- Total photon count in vivo at 6 hours after administration (Total Flux) [3]: 8.22E+10

- Particle size (nm) [1]: 101.90 nm
- Particle-size distribution (PDI) [1]: 0.028
- Encapsulation efficiency (%) [2]: 89.09%
SMILES: CCCCCCCCCCC(=O)OCC(C)(C)CCCCCN(CCO)CCCCCCCC(=O)OC(CCCCCCCCC)CCCCCCCCC [16b]
- Total photon count in vivo at 6 hours after administration (Total Flux) [3]: 1.28E+11

- Particle size (nm) [1]: 100.46 nm
- Particle-size distribution (PDI) [1]: 0.037
- Encapsulation efficiency (%) [2]: 89.34%
SMILES: CCCCCCCCCCOC(=O)CCCCCCCN(CCO)CCCCCC(C)(C)COC(=O)C(CCCCCCCC)CCCCCCCC [18b]
- Total photon count in vivo at 6 hours after administration (Total Flux) [3]: 3.91E+10

- Particle size (nm) [1]: 109.37 nm
- Particle-size distribution (PDI) [1]: 0.035
- Encapsulation efficiency (%) [2]: 87.90%
SMILES: CCCCCCCCCCCOC(=O)CCCCCN(CCO)CCCCCC(C)(C)CC(=O)OC(CCCCCCCC)CCCCCCCC [19a]
- Total photon count in vivo at 6 hours after administration (Total Flux) [3]: 4.73E+10

- Particle size (nm) [1]: 110.00 nm
- Particle-size distribution (PDI) [1]: 0.016
- Encapsulation efficiency (%) [2]: 88.37%
SMILES: CCCCCCCCC(CCCCCCCC)OC(=O)C(C)(C)CCCCCCN(CCO)CCCCCC(=O)OCCCCCCCCCC(C)C [21a]
- Total photon count in vivo at 6 hours after administration (Total Flux) [3]: 8.84E+10

- Particle size (nm) [1]: 94.58 nm
- Particle-size distribution (PDI) [1]: 0.051
- Encapsulation efficiency (%) [2]: 92.37%
SMILES: CCCCCCCCCCC(=O)OCC1(CCCCCN(CCO)CCCCCCCC(=O)OC(CCCCCCCCC)CCCCCCCCC)CC1 [21b]
- Total photon count in vivo at 6 hours after administration (Total Flux) [3]: 4.95E+10

- Particle size (nm) [1]: 99.48 nm
- Particle-size distribution (PDI) [1]: 0.010
- Encapsulation efficiency (%) [2]: 97.25%
SMILES: CCCCCCCCCCCOC(=O)CCCCCN(CCO)CCCCCCC1(C(=O)OC(CCCCCCCC)CCCCCCCC)CCCC1 [22a]
- Total photon count in vivo at 6 hours after administration (Total Flux) [3]: 1.74E+10

- Particle size (nm) [1]: 99.25 nm
- Particle-size distribution (PDI) [1]: 0.011
- Encapsulation efficiency (%) [2]: 96.30%
SMILES: CCCCCCCCCCOC(=O)CCCCCN(CCO)CCCCCCC(C)(C)C(=O)OC(CCCCCCC)CCCCCCC [23a]
- Total photon count in vivo at 6 hours after administration (Total Flux) [3]: 9.84E+10

- Particle size (nm) [1]: 109.53 nm
- Particle-size distribution (PDI) [1]: 0.052
- Encapsulation efficiency (%) [2]: 88.89%
SMILES: CCCCCCCCCCCCOC(=O)CCCCCN(CCO)CCCCCCC(C)(C)C(=O)OC(CCCCCCCCC)CCCCCCCCC [24a]
- Total photon count in vivo at 6 hours after administration (Total Flux) [3]: 3.07E+10

- Particle size (nm) [1]: 83.05 nm
- Particle-size distribution (PDI) [1]: 0.019
- Encapsulation efficiency (%) [2]: 94.52%
SMILES: CCCCCCCCCC(=O)OCC1(CCCCCN(CCCCO)CCCCCCCC(=O)OC(CCCCCCCCC)CCCCCCCCC)CC1 [24b]
- Total photon count in vivo at 6 hours after administration (Total Flux) [3]: 7.06E+10

- Particle size (nm) [1]: 86.99 nm
- Particle-size distribution (PDI) [1]: 0.051
- Encapsulation efficiency (%) [2]: 95.62%
SMILES: CCCCCCCCCOC(=O)CCCCC(C)(C)CCN(CCO)CCCCCCCC(=O)OC(CCCCCCCC)CCCCCCCC [25a]
- Total photon count in vivo at 6 hours after administration (Total Flux) [3]: 1.33E+11
